No end group written: not given here.
What was measured:
hippocampal LTP (CA1) [1] = assay: Hippocampal long-term potentiation (LTP) in slices from wild type mice; set-up: species or system mouse
Protocol: (§1) We examined whether the peptide fragments were capable of influencing Aβ- or hAmylin-induced reduction of hippocampal LTP in mice. Exposure of hippocampal slices from wild-type mice to hAmylin (50 nM) or Aβ (50 nM) depressed LTP induced by a weak tetanization protocol at the CA1 region as previously reported[20],[30]. To determine whether peptides affected hAmylin or Aβ- induced depression of LTP, we applied 250 nM R5 or R14 continuously for 5 min prior to exposure of the hippocampal slices to 50 nM hAmylin or Aβ and the subsequent LTP induction. […] We therefore sought to determine whether peptide fragments were also capable of improving LTP levels in the same TgCRND8 AD mouse model. […] Importantly, doses of the short peptide fragments used in these experiments were equimolar to those used for AC253 and pramlintide in our previous studies[20],[30].
For electrophysiology experiment, hippocampal slices (400-μm thick) were prepared using a vibratome from wild type and TgCRND8 mice (8 month of age, male or female). For long-term potentiation (LTP) measurement, the stimulus strength was set to elicit 40–50% of the maximum fEPSP (field excitatory postsynaptic potential) amplitude and test pulses were delivered once every 30s. LTP was induced by 3-theta-burst stimulation protocol (each burst consisted of four pulses at 100 Hz with a 200-ms interburst interval). All drugs and chemicals were applied directly to the slice via bath perfusion.
Brains were quickly removed from mice following decapitation, placed in a cold artificial cerebral spinal fluid (aCSF) on a vibratome chamber, and transverse sections cut through the hippocampus. The aCSF contained (in millimolar 124 NaCl, 3 KCl, 2.4 CaCl2, 2 MgCl2, 1.25 NaH2PO4, 26 NaHCO3, and 10 D-glucose and was equilibrated with 95 % O2 and 5 % CO2. Hippocampal slices (400-μm thick) were maintained in aCSF-filled holding chamber at room temperature for at least 1 h and individually transferred to the submerged glass bottom recording chamber, which was constantly perfused with aCSF (2 ml/min) at 30 °C. Field excitatory postsynaptic potential (fEPSP) was recorded with a metallic (Pt/Ir) electrode (FHC, Bowdoin, ME) from the stratum radiatum layer of Cornu ammonis 1 region of the hippocampus (CA1) area, and the Schaffer collateral afferents were stimulated with 100-μs test pulses via a bipolar cluster electrode (FHC). For long-term potentiation (LTP) experiments, the stimulus strength was set to elicit 40–50 % of the maximum fEPSP amplitude and test pulses were delivered to Schaffer collaterals once every 30 s. […] Before 3-TBS or drug application, the responses were monitored for at least 10 min to ensure a stable baseline of fEPSP. […]

[2] = Observation for off-target effects and body weight during 5 weeks of treatment; format: in vivo, mouse; conditions: mice
Protocol: The determination of injection amount of R5 (200 µg/kg) was based on achieving equimolar concentrations as the full length peptide, cAC253[21] and prior studies that used pramlintide injections[22],[23]. The normal mouse circulated endogenous amylin level is 0.7 ± 0.4 pmol/L in plasma[32] and based upon our in vitro data (Fig. 1E) unlikely to perturb the function of peptides in vivo at these concentrations.

[3] = Ex vivo NIR fluorescence brain imaging after ip injection (brain penetration); format: in vivo, mouse; conditions: wild-type mice, 0, 0.6, 2, 10, 20 mg/kg single ip dose, 2 h, n = 3 per dose
Excerpt: Blood brain barrier (BBB) penetration can limit the potential of long sequence peptides as therapeutic agents in central nervous system (CNS). Previously, we have reported that a cyclized form of AC253 peptide and to a lesser degree its linear form can both penetrate the BBB at therapeutically relevant levels, and are localized to the hippocampus and cortex, regions relevant to memory and learning processes. Therefore, we examined the ability of Cy5.5 labeled peptide fragments (R5, and R14) to penetrate BBB in wild-type mice using NIR fluorescence ex vivo brain imaging. Brain fluorescence resulting from either R5 or R14 was assessed against full length AC253 2 h after a single intraperitoneal (ip) injection of peptides. […] Fluorescence signals were distributed throughout the cortex, but particularly strong within the hippocampal regions, where a very high density of amylin receptor expression has been reported. […]
In vivo brain penetration and pharmacokinetics of the peptides were determined in 6-month-old male or female wild-type (C57BL/6 background) and heterozygous CTR mice (het-CTR). […]
For ex vivo imaging experiments and peptide brain uptake, we used age matched 6-month-old wild-type littermate (C57BL/6 background) mice. […] Region of interest was drawn around the brain region and analyzed using the Kodak ID 3.6 software and the mean fluorescence intensity was recorded. […]

hippocampal LTP (CA1) [4] = assay: Hippocampal LTP in slices from 8 month old TgCRND8 mice; set-up: species or system mouse; conditions: n = 6 recordings
Protocol: as §1
For electrophysiology experiment, hippocampal slices (400-μm thick) were prepared using a vibratome from wild type and TgCRND8 mice (8 month of age, male or female). […]
Brains were quickly removed from mice following decapitation, placed in a cold artificial cerebral spinal fluid (aCSF) on a vibratome chamber, and transverse sections cut through the hippocampus. […] Before 3-TBS or drug application, the responses were monitored for at least 10 min to ensure a stable baseline of fEPSP. […]

**Q.** With SQELHRLQTYPR-NH2 [R5] as the substance, how does the “effect of peptide alone on hippocampal LTP” value (hippocampal LTP (CA1) [1]; wild type mouse slices, 250 nM) read?
**A.** did not impair LTP

**Q.** What about the “effect on Aβ-induced depression of hippocampal LTP” value (hippocampal LTP (CA1) [1]; wild-type mouse slices, peptide 250 nM for 5 min before Aβ1–42 50 nM, n = 6 recordings) of the same substance?
**A.** reversed

**Q.** And the “effect on hAmylin-induced depression of hippocampal LTP” value (hippocampal LTP (CA1) [1]; wild-type mouse slices, peptide 250 nM for 5 min before hAmylin 50 nM, n = 6 recordings)?
**A.** reversed

**Q.** What about the body weight ([2]; 5 weeks of ip treatment) of the same substance?
**A.** no significant changes in body weight

**Q.** What about the “signs of off-target effects (sedation, gait, feeding or drinking, weight loss, hair loss, grooming)” value ([2]; 5 weeks of ip treatment three times a week) of the same substance?
**A.** None of the mice receiving cAC253 or R5 showed any signs of off-target effects

**Q.** And the “accumulation in the brain at increasing dose” value [3]?
**A.** dose-dependent

**Q.** What about the “effect on chronically depressed LTP in TgCRND8 slices” value (hippocampal LTP (CA1) [4]) of the same substance?
**A.** significant increase in LTP

— paper PMC6662706, “Short amylin receptor antagonist peptides improve memory deficits in Alzheimer’s disease mouse model” (Scientific Reports, 2019)
